# Experiments:
# [1] = Dynamic change of the concentration of HpD and HMME in chicken blood; format: in vivo; details: 10 mg/kg neck vein
# Experimental: HpD and HMME in chicken blood were monitored at various times after injection. HpD or HMME was injected in chicken neck veins at a dose of 10 mg/kg, taking a blood sample every 10 minutes following injection. […] The two curves shown in FIG. 2 have generally the same pattern.
# [2] = PDT for PWS, adverse effects and crust levels; format: in vivo, human
# Experimental: A solution of 1 ml saline was injected in the superficial vein (e.g. median cubital vein) of patients to ensure no liquid leaked into tissues adjacent to the blood vessels into which the injection was made. At the same site, HMME was injected intravenously for 20 minutes with a constant flow rate by using an infusion pump. The doses applied were 2.5 mg/kg body weight or 5.0 mg/kg body weight. Next, 2-4 ml of saline solution was again injected to prevent the drugs from aggregating locally. Irradiation with KTP532 laser was then applied to the patient's lesion site 0-10 minutes after the start of injection, for a total duration of irradiation of either 20 minutes (denoted as the 20 min group), or 30 minutes (denoted as the 30 minute group). […] When irradiation was started immediately after the start of injection, the overlap between the injection and irradiation was about 20 minutes, when irradiation started 5 minutes after the start of injection, the overlap between drug injection and light irradiation was approximately 15 minutes, and when irradiation was started 10 minutes after the start of injection, the overlap was about 10 minutes. The therapeutic results were measured 8 weeks after the treatment. The most common adverse temporary effects included swelling, burning, redness, pain, blister and crust formation in PDT for PWS and these symptoms occurred in almost every case. Scar or crust thickness was measured as thickening of crusts. The crust levels served as an assessment index for scars.
# [3] = Part A, 5.0 mg/kg, patients treated for 20 min
# [4] = Part B, 2.5 mg/kg group, irradiated 20 min
# [5] = Part B, 5.0 mg/kg group, irradiated 20 min
# [6] = Part B, 2.5 and 5.0 mg/kg, irradiated 20 min
substance,measurement,setting,value
hematoporphyrin monomethyl ether [HMME],Photosensitizer concentration in chicken blood,[1]; post-injection time 10 min,6.83 µg/mL
same,Photosensitizer concentration in chicken blood,[1]; post-injection time 20 min,5.92 µg/mL
same,Photosensitizer concentration in chicken blood,[1]; post-injection time 30 min,5.33 µg/mL
same,Photosensitizer concentration in chicken blood,[1]; post-injection time 40 min,4.83 µg/mL
same,Photosensitizer concentration in chicken blood,[1]; post-injection time 50 min,4.49 µg/mL
same,Photosensitizer concentration in chicken blood,[1]; post-injection time 60 min,4.17 µg/mL
same,Photosensitizer concentration in chicken blood,[1]; post-injection time 70 min,3.83 µg/mL
same,Photosensitizer concentration in chicken blood,[1]; post-injection time 80 min,3.58 µg/mL
same,Photosensitizer concentration in chicken blood,[1]; post-injection time 90 min,3.51 µg/mL
same,Photosensitizer concentration in chicken blood,[1]; post-injection time 100 min,2.67 µg/mL
same,Photosensitizer concentration in chicken blood,[1]; post-injection time 110 min,2.42 µg/mL
same,Photosensitizer concentration in chicken blood,[1]; post-injection time 120 min,1.99 µg/mL
same,time after injection at which serum concentration reaches a peak,[1]; chicken,10 min
same,"Blister, Mild (cases)","[2]; 5.0 mg/kg, 20 min group",0
same,"Blister, Moderate (cases)","[2]; 5.0 mg/kg, 20 min group",0
same,"Blister, Rate (%)","[2]; 5.0 mg/kg, 20 min group",0.0%
same,"Blister, total (cases)","[2]; 5.0 mg/kg, 20 min group",10
same,"Burning, Mild (cases)","[2]; 5.0 mg/kg, 20 min group",0
same,"Burning, Moderate (cases)","[2]; 5.0 mg/kg, 20 min group",0
same,"Burning, Rate (%)","[2]; 5.0 mg/kg, 20 min group",0.0%
same,"Burning, total (cases)","[2]; 5.0 mg/kg, 20 min group",0
same,"Pain, Mild (cases)","[2]; 5.0 mg/kg, 20 min group",1
same,"Pain, Moderate (cases)","[2]; 5.0 mg/kg, 20 min group",9
same,"Pain, Rate (%)","[2]; 5.0 mg/kg, 20 min group",50.0%
same,"Pain, total (cases)","[2]; 5.0 mg/kg, 20 min group",10
same,"Redness, Mild (cases)","[2]; 5.0 mg/kg, 20 min group",0
same,"Redness, Moderate (cases)","[2]; 5.0 mg/kg, 20 min group",0
same,"Redness, Rate (%)","[2]; 5.0 mg/kg, 20 min group",0.0%
same,"Redness, total (cases)","[2]; 5.0 mg/kg, 20 min group",0
same,"Swelling, Mild (cases)","[2]; 5.0 mg/kg, 20 min group",9
same,"Swelling, Moderate (cases)","[2]; 5.0 mg/kg, 20 min group",9
same,"Swelling, Rate (%)","[2]; 5.0 mg/kg, 20 min group",90.0%
same,"Swelling, total (cases)","[2]; 5.0 mg/kg, 20 min group",18
same,"crust level Moderate thick and fractional, (%)","[2]; 5.0 mg/kg, 20 min group",(5.0) %
same,"crust level Moderate thick and full, (%)","[2]; 5.0 mg/kg, 20 min group",(0.0) %
same,"crust level None, (%)","[2]; 5.0 mg/kg, 20 min group",(25.0) %
same,"crust level Thin and fractional, (%)","[2]; 5.0 mg/kg, 20 min group",(50.0) %
same,"crust level Thin and full, (%)","[2]; 5.0 mg/kg, 20 min group",(20.0) %
same,"Blister, Mild (cases)","[2]; 5.0 mg/kg, 30 min group",2
same,"Blister, Moderate (cases)","[2]; 5.0 mg/kg, 30 min group",0
same,"Blister, Rate (%)","[2]; 5.0 mg/kg, 30 min group",10.0%
same,"Blister, total (cases)","[2]; 5.0 mg/kg, 30 min group",2
same,"Burning, Mild (cases)","[2]; 5.0 mg/kg, 30 min group",0
same,"Burning, Moderate (cases)","[2]; 5.0 mg/kg, 30 min group",1
same,"Burning, Rate (%)","[2]; 5.0 mg/kg, 30 min group",5.0%
same,"Burning, total (cases)","[2]; 5.0 mg/kg, 30 min group",1
same,"Pain, Mild (cases)","[2]; 5.0 mg/kg, 30 min group",3
same,"Pain, Moderate (cases)","[2]; 5.0 mg/kg, 30 min group",12
same,"Pain, Rate (%)","[2]; 5.0 mg/kg, 30 min group",75.0%
same,"Pain, total (cases)","[2]; 5.0 mg/kg, 30 min group",15
same,"Redness, Mild (cases)","[2]; 5.0 mg/kg, 30 min group",0
same,"Redness, Moderate (cases)","[2]; 5.0 mg/kg, 30 min group",2
same,"Redness, Rate (%)","[2]; 5.0 mg/kg, 30 min group",10.0%
same,"Redness, total (cases)","[2]; 5.0 mg/kg, 30 min group",2
same,"Swelling, Mild (cases)","[2]; 5.0 mg/kg, 30 min group",6
same,"Swelling, Moderate (cases)","[2]; 5.0 mg/kg, 30 min group",12
same,"Swelling, Rate (%)","[2]; 5.0 mg/kg, 30 min group",90.0%
same,"Swelling, total (cases)","[2]; 5.0 mg/kg, 30 min group",18
same,"crust level Moderate thick and fractional, (%)","[2]; 5.0 mg/kg, 30 min group",(5.0) %
same,"crust level Moderate thick and full, (%)","[2]; 5.0 mg/kg, 30 min group",(15.0) %
same,"crust level None, (%)","[2]; 5.0 mg/kg, 30 min group",(15.0) %
same,"crust level Thin and fractional, (%)","[2]; 5.0 mg/kg, 30 min group",(25.0) %
same,"crust level Thin and full, (%)","[2]; 5.0 mg/kg, 30 min group",(40.0) %
same,severity of adverse effects,"[2]; Part A, 5.0 mg/kg, irradiation 20 or 30 min",mild or moderate
same,scars,[2]; [3],no scars were present
same,serious-thick crusts,[2]; [3],No serious-thick crusts occurred
same,"Crust Total, Rate (%)",[2]; [4],34.7%
same,"Crust level Mild, Rate (%)",[2]; [4],34.7%
same,"Crust level Moderate, Rate (%)",[2]; [4],0.0%
same,"Crust level Serious, Rate (%)",[2]; [4],0.0%
same,"Crust Total, Rate (%)",[2]; [5],88.01%
same,"Crust level Mild, Rate (%)",[2]; [5],60.0%
same,"Crust level Moderate, Rate (%)",[2]; [5],28.0%
same,"Crust level Serious, Rate (%)",[2]; [5],0.0%
same,scars,[2]; [6],no scars were formed
same,serious-thick crusts,[2]; [6],No serious-thick crusts occurred
